{"source": "paper PMC9133015", "about": "(Nature Communications, 2022)", "assay_in_all_cases": "Kinase inhibitor specificity profiling (Reaction Biology Corporation)", "type_in_all_cases": "biochemical", "design_in_all_cases": "% Enzyme Activity (relative to DMSO controls): concentration or dose not given beside the values", "key": {"[1]": {"target": "T1, panel of 370 protein kinases (Homo sapiens, UniProt O60674)", "T1 construct": "purchased Reaction Biology Corporation (assay service)", "T1 sequence (O60674 whole entry)": "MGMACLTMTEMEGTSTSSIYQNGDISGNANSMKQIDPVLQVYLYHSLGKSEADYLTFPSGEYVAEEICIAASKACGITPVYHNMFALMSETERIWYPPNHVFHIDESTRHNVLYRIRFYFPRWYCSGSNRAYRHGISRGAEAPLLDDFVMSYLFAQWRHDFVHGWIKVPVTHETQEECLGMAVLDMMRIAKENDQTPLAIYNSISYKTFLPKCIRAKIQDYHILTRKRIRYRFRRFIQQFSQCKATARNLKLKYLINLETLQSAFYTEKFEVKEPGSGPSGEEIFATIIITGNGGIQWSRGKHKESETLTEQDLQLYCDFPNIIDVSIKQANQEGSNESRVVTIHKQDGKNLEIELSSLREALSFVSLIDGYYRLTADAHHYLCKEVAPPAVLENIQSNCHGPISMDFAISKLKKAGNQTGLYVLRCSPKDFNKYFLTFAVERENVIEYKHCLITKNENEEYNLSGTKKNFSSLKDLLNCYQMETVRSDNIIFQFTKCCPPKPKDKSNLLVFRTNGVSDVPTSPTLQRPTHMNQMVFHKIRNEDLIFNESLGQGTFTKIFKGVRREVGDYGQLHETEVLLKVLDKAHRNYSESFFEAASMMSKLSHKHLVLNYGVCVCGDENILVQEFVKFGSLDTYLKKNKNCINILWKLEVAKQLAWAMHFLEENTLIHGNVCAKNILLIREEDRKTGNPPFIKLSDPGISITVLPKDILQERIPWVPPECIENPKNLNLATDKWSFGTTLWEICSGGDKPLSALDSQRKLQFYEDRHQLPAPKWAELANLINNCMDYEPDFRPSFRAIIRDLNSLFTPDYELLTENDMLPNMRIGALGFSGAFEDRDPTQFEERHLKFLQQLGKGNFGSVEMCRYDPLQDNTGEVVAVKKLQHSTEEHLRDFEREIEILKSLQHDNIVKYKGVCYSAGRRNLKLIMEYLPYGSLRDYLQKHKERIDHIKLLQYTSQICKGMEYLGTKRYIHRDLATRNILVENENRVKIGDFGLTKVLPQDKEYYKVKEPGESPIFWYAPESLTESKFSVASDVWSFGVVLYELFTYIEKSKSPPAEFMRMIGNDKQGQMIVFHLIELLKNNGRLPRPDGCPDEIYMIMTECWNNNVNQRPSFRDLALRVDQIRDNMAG", "settings": "kinase JAK2"}, "[2]": {"target": "T2, panel of 370 protein kinases (Homo sapiens, UniProt O94804)", "T2 construct": "purchased Reaction Biology Corporation (assay service)", "T2 sequence (O94804 whole entry)": "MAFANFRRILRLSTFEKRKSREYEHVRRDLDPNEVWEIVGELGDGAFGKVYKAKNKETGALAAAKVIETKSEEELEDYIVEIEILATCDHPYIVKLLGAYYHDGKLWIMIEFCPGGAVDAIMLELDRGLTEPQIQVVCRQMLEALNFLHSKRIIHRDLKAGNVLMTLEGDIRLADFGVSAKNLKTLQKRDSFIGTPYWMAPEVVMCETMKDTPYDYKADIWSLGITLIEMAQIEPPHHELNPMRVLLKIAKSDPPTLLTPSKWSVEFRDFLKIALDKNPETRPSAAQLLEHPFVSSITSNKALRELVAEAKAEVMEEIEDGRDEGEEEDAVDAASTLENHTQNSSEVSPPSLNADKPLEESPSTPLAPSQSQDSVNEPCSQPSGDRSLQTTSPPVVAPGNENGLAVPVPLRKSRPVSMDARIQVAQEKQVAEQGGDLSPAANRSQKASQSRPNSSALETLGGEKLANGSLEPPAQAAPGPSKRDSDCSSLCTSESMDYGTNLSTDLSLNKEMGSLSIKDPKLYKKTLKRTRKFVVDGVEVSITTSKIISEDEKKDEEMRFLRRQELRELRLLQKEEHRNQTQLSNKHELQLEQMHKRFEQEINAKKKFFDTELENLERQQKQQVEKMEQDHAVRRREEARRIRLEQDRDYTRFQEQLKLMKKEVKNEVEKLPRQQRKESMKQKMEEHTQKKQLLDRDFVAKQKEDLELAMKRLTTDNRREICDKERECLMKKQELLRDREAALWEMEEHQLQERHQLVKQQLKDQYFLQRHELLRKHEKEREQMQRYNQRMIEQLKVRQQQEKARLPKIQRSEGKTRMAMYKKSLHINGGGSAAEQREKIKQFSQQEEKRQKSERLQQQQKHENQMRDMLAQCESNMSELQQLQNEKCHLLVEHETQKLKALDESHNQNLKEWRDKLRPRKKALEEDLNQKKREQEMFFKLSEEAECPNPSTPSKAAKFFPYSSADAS", "settings": "kinase LOK/STK10"}, "[3]": {"target": "T3, panel of 370 protein kinases (Homo sapiens, UniProt P08922)", "T3 construct": "purchased Reaction Biology Corporation (assay service)", "settings": "2 h, kinase ROS/ROS1; read-out: % Enzyme Activity (relative to DMSO controls)"}, "[4]": {"target": "T4, panel of 370 protein kinases (Homo sapiens, UniProt P30530)", "T4 construct": "purchased Reaction Biology Corporation (assay service)", "settings": "2 h, kinase AXL; read-out: % Enzyme Activity (relative to DMSO controls)"}, "[5]": {"target": "T5, panel of 370 protein kinases (Homo sapiens, UniProt P37173)", "T5 construct": "purchased Reaction Biology Corporation (assay service)", "settings": "2 h, kinase TGFBR2; read-out: % Enzyme Activity (relative to DMSO controls)"}, "[6]": {"target": "T6, panel of 370 protein kinases (Homo sapiens, UniProt P45983)", "T6 construct": "purchased Reaction Biology Corporation (assay service)", "T6 sequence (P45983 whole entry)": "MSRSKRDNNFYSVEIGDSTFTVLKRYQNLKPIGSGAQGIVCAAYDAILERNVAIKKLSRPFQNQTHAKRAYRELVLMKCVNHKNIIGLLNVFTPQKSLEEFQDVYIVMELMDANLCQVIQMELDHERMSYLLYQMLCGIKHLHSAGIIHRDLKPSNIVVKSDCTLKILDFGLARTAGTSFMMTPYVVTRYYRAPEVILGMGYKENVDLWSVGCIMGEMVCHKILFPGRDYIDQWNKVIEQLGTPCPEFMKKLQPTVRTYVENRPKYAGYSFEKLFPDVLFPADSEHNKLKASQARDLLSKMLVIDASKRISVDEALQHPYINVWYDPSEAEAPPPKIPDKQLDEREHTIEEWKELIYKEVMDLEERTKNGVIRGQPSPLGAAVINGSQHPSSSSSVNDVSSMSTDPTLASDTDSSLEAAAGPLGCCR", "settings": "kinase JNK1"}, "[7]": {"target": "T7, panel of 370 protein kinases (Homo sapiens, UniProt P49841)", "T7 construct": "purchased Reaction Biology Corporation (assay service)", "settings": "2 h, kinase GSK3b; read-out: % Enzyme Activity (relative to DMSO controls)"}, "[8]": {"target": "T8, panel of 370 protein kinases (Homo sapiens, UniProt P53667)", "T8 construct": "purchased Reaction Biology Corporation (assay service)", "settings": "2 h, kinase LIMK1; read-out: % Enzyme Activity (relative to DMSO controls)"}, "[9]": {"target": "T9, panel of 370 protein kinases (Homo sapiens, UniProt P54760)", "T9 construct": "purchased Reaction Biology Corporation (assay service)", "settings": "2 h, kinase EPHB4; read-out: % Enzyme Activity (relative to DMSO controls)"}, "[10]": {"target": "T10, panel of 370 protein kinases (Homo sapiens, UniProt Q02779)", "T10 construct": "purchased Reaction Biology Corporation (assay service)", "settings": "2 h, kinase MLK2/MAP3K10; read-out: % Enzyme Activity (relative to DMSO controls)"}, "[11]": {"target": "T11, panel of 370 protein kinases (Homo sapiens, UniProt Q06187)", "T11 construct": "purchased Reaction Biology Corporation (assay service)", "T11 sequence (Q06187 whole entry)": "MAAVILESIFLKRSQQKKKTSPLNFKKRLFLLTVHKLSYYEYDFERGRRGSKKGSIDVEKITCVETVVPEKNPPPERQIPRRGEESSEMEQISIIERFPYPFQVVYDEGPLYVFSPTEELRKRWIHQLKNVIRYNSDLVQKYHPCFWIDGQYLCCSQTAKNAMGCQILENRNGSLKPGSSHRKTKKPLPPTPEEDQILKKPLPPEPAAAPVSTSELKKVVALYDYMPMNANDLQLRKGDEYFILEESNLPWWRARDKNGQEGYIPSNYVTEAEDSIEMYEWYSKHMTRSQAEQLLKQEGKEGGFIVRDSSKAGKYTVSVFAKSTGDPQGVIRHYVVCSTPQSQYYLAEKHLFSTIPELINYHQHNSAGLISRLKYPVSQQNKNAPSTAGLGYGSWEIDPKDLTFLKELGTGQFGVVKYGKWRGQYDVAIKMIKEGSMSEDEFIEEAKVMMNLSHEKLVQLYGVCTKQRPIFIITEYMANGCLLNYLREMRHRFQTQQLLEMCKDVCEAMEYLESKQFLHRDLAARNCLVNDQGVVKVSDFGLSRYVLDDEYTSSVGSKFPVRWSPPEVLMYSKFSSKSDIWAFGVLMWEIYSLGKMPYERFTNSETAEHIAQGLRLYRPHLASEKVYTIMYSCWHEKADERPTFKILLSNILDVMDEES", "settings": "kinase BTK"}, "[12]": {"target": "T12, panel of 370 protein kinases (Homo sapiens, UniProt Q12866)", "T12 construct": "purchased Reaction Biology Corporation (assay service)", "settings": "2 h, kinase c-MER; read-out: % Enzyme Activity (relative to DMSO controls)"}, "[13]": {"target": "T13, panel of 370 protein kinases (Homo sapiens, UniProt Q13153)", "T13 construct": "purchased Reaction Biology Corporation (assay service)", "settings": "2 h, kinase PAK1; read-out: % Enzyme Activity (relative to DMSO controls)"}, "[14]": {"target": "T14, panel of 370 protein kinases (Homo sapiens, UniProt Q13882)", "T14 construct": "purchased Reaction Biology Corporation (assay service)", "T14 sequence (Q13882 whole entry)": "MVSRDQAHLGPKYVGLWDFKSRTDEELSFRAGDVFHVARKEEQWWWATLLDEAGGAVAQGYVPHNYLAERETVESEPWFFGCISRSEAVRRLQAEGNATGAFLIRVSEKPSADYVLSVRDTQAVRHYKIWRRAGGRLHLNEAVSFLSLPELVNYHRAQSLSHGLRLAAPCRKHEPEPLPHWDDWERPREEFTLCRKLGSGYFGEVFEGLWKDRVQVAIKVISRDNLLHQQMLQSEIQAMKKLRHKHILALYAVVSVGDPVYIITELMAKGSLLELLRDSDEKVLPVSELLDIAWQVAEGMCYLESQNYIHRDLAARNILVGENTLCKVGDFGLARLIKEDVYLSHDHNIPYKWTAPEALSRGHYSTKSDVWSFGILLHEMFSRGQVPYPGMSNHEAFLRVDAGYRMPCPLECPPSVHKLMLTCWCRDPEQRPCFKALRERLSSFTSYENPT", "settings": "2 h, kinase BRK; read-out: % Enzyme Activity (relative to DMSO controls)"}, "[15]": {"target": "T15, panel of 370 protein kinases (Homo sapiens, UniProt Q52WX2)", "T15 construct": "purchased Reaction Biology Corporation (assay service)", "settings": "2 h, kinase SBK1; read-out: % Enzyme Activity (relative to DMSO controls)"}, "[16]": {"target": "T16, panel of 370 protein kinases (Homo sapiens, UniProt Q5TCY1)", "T16 construct": "purchased Reaction Biology Corporation (assay service)", "settings": "2 h, kinase TTBK1; read-out: % Enzyme Activity (relative to DMSO controls)"}, "[17]": {"target": "T17, panel of 370 protein kinases (Homo sapiens, UniProt Q96NX5)", "T17 construct": "purchased Reaction Biology Corporation (assay service)", "T17 sequence (Q96NX5 whole entry)": "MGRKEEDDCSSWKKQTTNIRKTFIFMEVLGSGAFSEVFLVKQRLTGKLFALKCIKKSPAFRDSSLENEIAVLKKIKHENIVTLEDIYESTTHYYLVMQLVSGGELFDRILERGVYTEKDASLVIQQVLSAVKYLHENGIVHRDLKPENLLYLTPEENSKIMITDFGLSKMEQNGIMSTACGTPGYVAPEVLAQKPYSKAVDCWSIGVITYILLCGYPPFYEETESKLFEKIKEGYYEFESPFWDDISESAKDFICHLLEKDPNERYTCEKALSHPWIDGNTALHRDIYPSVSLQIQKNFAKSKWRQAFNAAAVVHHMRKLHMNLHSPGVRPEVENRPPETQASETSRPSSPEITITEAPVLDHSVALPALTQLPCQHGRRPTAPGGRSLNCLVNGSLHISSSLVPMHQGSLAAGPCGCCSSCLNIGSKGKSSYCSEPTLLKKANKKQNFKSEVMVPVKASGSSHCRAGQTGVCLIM", "settings": "2 h, kinase CAMK1g; read-out: % Enzyme Activity (relative to DMSO controls)"}, "[18]": {"target": "T18, panel of 370 protein kinases (Homo sapiens, UniProt Q96RR4)", "T18 construct": "purchased Reaction Biology Corporation (assay service)", "settings": "2 h, kinase CAMKK2; read-out: % Enzyme Activity (relative to DMSO controls)"}, "[19]": {"target": "T19, panel of 370 protein kinases (Homo sapiens, UniProt Q99986)", "T19 construct": "purchased Reaction Biology Corporation (assay service)", "T19 sequence (Q99986 whole entry)": "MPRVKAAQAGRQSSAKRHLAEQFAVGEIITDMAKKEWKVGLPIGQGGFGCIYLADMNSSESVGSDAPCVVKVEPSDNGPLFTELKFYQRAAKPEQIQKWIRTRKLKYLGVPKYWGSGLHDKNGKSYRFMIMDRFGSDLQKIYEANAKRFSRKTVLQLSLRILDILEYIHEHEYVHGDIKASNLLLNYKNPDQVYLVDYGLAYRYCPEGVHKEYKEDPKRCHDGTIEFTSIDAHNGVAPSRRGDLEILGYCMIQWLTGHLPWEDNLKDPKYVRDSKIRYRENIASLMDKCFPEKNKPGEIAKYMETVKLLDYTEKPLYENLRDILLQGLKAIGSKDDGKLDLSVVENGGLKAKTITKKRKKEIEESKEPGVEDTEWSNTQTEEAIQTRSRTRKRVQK", "settings": "kinase VRK1"}, "[20]": {"target": "T20, panel of 370 protein kinases (Homo sapiens, UniProt Q9UEE5)", "T20 construct": "purchased Reaction Biology Corporation (assay service)", "T20 sequence (Q9UEE5 whole entry)": "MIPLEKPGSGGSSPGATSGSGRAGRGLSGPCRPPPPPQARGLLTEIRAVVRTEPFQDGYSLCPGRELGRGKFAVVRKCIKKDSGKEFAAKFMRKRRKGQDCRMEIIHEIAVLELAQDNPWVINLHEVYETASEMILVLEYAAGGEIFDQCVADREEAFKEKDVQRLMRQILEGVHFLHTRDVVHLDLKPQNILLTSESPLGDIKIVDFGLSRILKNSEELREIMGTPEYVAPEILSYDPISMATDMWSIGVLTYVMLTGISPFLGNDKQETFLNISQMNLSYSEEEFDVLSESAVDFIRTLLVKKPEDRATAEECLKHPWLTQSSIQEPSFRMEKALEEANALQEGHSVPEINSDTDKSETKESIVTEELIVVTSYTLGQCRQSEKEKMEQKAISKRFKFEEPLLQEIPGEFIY", "settings": "2 h, kinase DRAK1/STK17A; read-out: % Enzyme Activity (relative to DMSO controls)"}, "[21]": {"target": "T21, panel of 370 protein kinases (Homo sapiens, UniProt Q9UKE5)", "T21 construct": "purchased Reaction Biology Corporation (assay service)", "settings": "2 h, kinase TNIK; read-out: % Enzyme Activity (relative to DMSO controls)"}, "[22]": {"target": "T22, panel of 370 protein kinases (Homo sapiens, UniProt Q9UKI8)", "T22 construct": "purchased Reaction Biology Corporation (assay service)", "settings": "2 h, kinase TLK1; read-out: % Enzyme Activity (relative to DMSO controls)"}}, "note": "Values joined by “and” are separate entries in the source; they are usually repeats but may differ in a detail not shown here. Equal values may be shown once.", "data": [{"molecule": "CCN1CCN(C(=O)c2ccc(Nc3ncc(F)c(-c4ccc5nc(N(C)C)sc5c4)n3)nc2)CC1", "note": "[YK-2-69]", "values": [{"measurement": "% Enzyme Activity (relative to DMSO controls)", "setting": "[1]", "result": "101.21% and 93.21%"}, {"measurement": "% Enzyme Activity (relative to DMSO controls)", "setting": "[2]", "result": "97.88% and 97.48%"}, {"measurement": "remaining activity at 1 µM", "setting": "[3]", "result": 79.3, "unit": "%"}, {"measurement": "remaining activity at 1 µM", "setting": "[4]", "result": 94.3, "unit": "%"}, {"measurement": "remaining activity at 1 µM", "setting": "[5]", "result": 104, "unit": "%"}, {"measurement": "% Enzyme Activity (relative to DMSO controls)", "setting": "[6]", "result": "71.84% and 70.88%"}, {"measurement": "remaining activity at 1 µM", "setting": "[7]", "result": 60.8, "unit": "%"}, {"measurement": "remaining activity at 1 µM", "setting": "[8]", "result": 95.7, "unit": "%"}, {"measurement": "remaining activity at 1 µM", "setting": "[9]", "result": 106, "unit": "%"}, {"measurement": "remaining activity at 1 µM", "setting": "[10]", "result": 81.7, "unit": "%"}, {"measurement": "% Enzyme Activity (relative to DMSO controls)", "setting": "[11]", "result": "90.26% and 87.58%"}, {"measurement": "remaining activity at 1 µM", "setting": "[12]", "result": 96.8, "unit": "%"}, {"measurement": "remaining activity at 1 µM", "setting": "[13]", "result": 89.2, "unit": "%"}, {"measurement": "remaining activity at 1 µM", "setting": "[14]", "result": 97.7, "unit": "%"}, {"measurement": "remaining activity at 1 µM", "setting": "[15]", "result": 103, "unit": "%"}, {"measurement": "remaining activity at 1 µM", "setting": "[16]", "result": 97.4, "unit": "%"}, {"measurement": "remaining activity at 1 µM", "setting": "[17]", "result": 56.8, "unit": "%"}, {"measurement": "remaining activity at 1 µM", "setting": "[18]", "result": 94.6, "unit": "%"}, {"measurement": "% Enzyme Activity (relative to DMSO controls)", "setting": "[19]", "result": "95.92% and 87.82%"}, {"measurement": "remaining activity at 1 µM", "setting": "[20]", "result": 59, "unit": "%"}, {"measurement": "remaining activity at 1 µM", "setting": "[21]", "result": 70.5, "unit": "%"}, {"measurement": "remaining activity at 1 µM", "setting": "[22]", "result": 98.4, "unit": "%"}]}]}
